Assay results reported in publication PMC8200971, “Design, Synthesis, Biological Evaluation and Silico Prediction of Novel Sinomenine Derivatives” (Molecules, 2021).

What was measured:
[1] = system: HepG2 (human hepatocellular carcinoma cell lines); test: MTT assay, growth inhibition; assay type: cell-based; conditions: HepG2, 20 μM, 24 h
Method: (§1) The in vitro growth inhibitory activity of the sinomenine derivatives (5a–5k) was evaluated against different three cell lines, MCF-7, Hela, and HepG2, using sinomenine as the reference compound kept under the same conditions in an MTT assay. The inhibition ratios of synthetic compounds were determined at concentrations of 2, 20 and 200 μM.
(§2) The MCF-7 (human breast cancer cell lines), Hela (human cervical cancer cells lines), and HepG2 (human hepatocellular carcinoma cell lines) cells were used to measure the cytotoxicity of the 5a–5k series, which were provided by the Academy of Military Medical Sciences (Beijing, China). The cell lines were maintained on RPMI 1640 nutrient medium supplemented with 10% heat-inactivated fetal bovine serum, 1% L-glutamine, […] and 100 units/mL penicillin. The cells were grown at 37 °C in a humidified atmosphere with 5% CO2 and were subcultured two to three times a week.
(§3) The MTT (3-(4, 5-dimethyl thiazol-2-yl)-2, 5-diphenyl tetrazolium bromide) assay with a slight modification was used to determine the inhibition effects of substrates 5a–5k. MCF-7, Hela and HepG2 were used for testing. Briefly, cells (5.0 × 10^3 cells per well) were seeded in 100 μL of the RPMI-1640 medium in 96-well plates for 24 h, treated with drugs and complete medium in wells up to 200 μL for 24 h. RPMI-1640 samples were employed as negative controls, and cisplatin as a positive control. Four quadruplicates of each concentration for all tested compounds were evaluated in three independent assays. For this, after removing the drug containing media 100 μL, 10 μL of MTT solution was added to wells and incubated for 4 h under similar conditions. After that, the supernatant from each well was removed and the formazan crystals formed by viable cells were dissolved with DMSO (100 μL/well). At the end of incubation, optical densities at 570 nm were measured using a plate reader (BIO-TEK, USA). Cell viability was calculated based on the measured absorbance relative to the absorbance of the cells exposed to the negative control, which represented 100% cell viability.

[2] = system: Hela (human cervical cancer cells lines); test: MTT assay, growth inhibition; assay type: cell-based; conditions: 20 μM, 24 h
Method: as §1, §2, §3

[3] = system: MCF-7 (human breast cancer cell lines); test: MTT assay, growth inhibition; assay type: cell-based; conditions: MCF-7, 20 μM, 24 h
Method: as §1, §2, §3

Row | SMILES | inhibition ratio [1] | melting point | inhibition ratio [2] | inhibition ratio [3]
1 | COC1=C[C@@H]2[C@@H]3Cc4c(CN5CCCCC5)cc(OC)c(OC(=O)Cc5cccc(Cl)c5)c4[C@]2(CCN3C)CC1=O [5g, (4bR,8aS,9S)-3,7-dimethoxy-11-methyl-6-oxo-1-(piperidin-1-ylmethyl)-6,8a,9,10-tetrahydro-5H-9,4b-(epiminoethano)phenanthren-4-yl 2-(3-chlorophenyl)acetate] | more than 53.2% | 164 to 167 °C |  | 
2 | COC1=C[C@@H]2[C@@H]3Cc4c(CN5CCCCC5)cc(OC)c(OC(=O)Cc5ccc(Cl)cc5Cl)c4[C@]2(CCN3C)CC1=O [5i, (4bR,8aS,9S)-3,7-dimethoxy-11-methyl-6-oxo-1-(piperidin-1-ylmethyl)-6,8a,9,10-tetrahydro-5H-9,4b-(epiminoethano)phenanthren-4-yl 2-(2,4-dichlorophenyl)acetate] | 90.69% | 135 to 137 °C | 94.43% | 54.13%
3 | COC1=C[C@@H]2[C@@H]3Cc4c(CN5CCCCC5)cc(OC)c(OC(=O)Cc5ccc(Cl)c(Cl)c5)c4[C@]2(CCN3C)CC1=O [5j, (4bR,8aS,9S)-3,7-dimethoxy-11-methyl-6-oxo-1-(piperidin-1-ylmethyl)-6,8a,9,10-tetrahydro-5H-9,4b-(epiminoethano)phenanthren-4-yl 2-(3,4-dichlorophenyl)acetate] | 89.57% | 143 to 146 °C | 80.22% | 63.35%
